From patent US7662574B2, “Use of a G protein-coupled receptor and its cognizant ligand in the identification of compounds that affect prolactin secretion” (Takeda Pharmaceutical Company Limited, priority 1999, dated 2010)

How the values were obtained:
rOT7T022L = biological target: T1, rOT7T022L (Rattus norvegicus, UniProt Q9EP86); test: Site sensor (Cytosensor) acidification rate in rOT7T022L receptor-expressing CHO cells; type: cell-based; details: peptide exposed to cells for 7 minutes and 2 seconds; FIG. 8
T1 construct: expressed in transfected cells
Experimental: The rOT7T022L receptor-expressing CHO cells obtained in Example 7 (2) above were inoculated on capsules for site sensor in 2.7×10^5 cells/capsule. After incubation overnight, the site sensor was mounted to a workstation for the site sensor. A medium for assay (low buffered RMP11640 medium supplemented with 0.1% bovine serum albumin), which was set in the flow path of the site sensor, was supplied to the cells in a pump cycle of ON (80 seconds) and OFF (40 seconds). A rate of change in […] from 8 to 30 seconds after the pump stopped was calculated as an acidification rate. A change of the acidification rate with passage of time was monitored; when stable reading was obtained, the flow path was switched to expose each peptide to the cells for 7 minutes and 2 seconds. In the acidification rate of each well, the data for 3 cycles immediately before the peptide exposure was made 100% for standardization.

Human 0T7T022 receptor = biological target: T2, Human 0T7T022 receptor (Homo sapiens, UniProt Q9GZQ6); test: Effect of pertussis toxin on cAMP production inhibiting activity in human 0T7T022 receptor-expressing CHO cells; type: cell-based; details: 0.1 μM peptide, 1 μM forskolin, 100 ng/ml pertussis toxin overnight; FIG. 15
T2 construct: expressed in transfected cells; host or cells: CHO cells
Experimental: Human 0T7T022 receptor-expressing CHO cells obtained in Example 21 were inoculated on a 24-well plate in a concentration of 1×10^5 cells/well. After culturing overnight, the medium was exchanged by a medium added with 100 ng/ml pertussis toxin (Sigma, Inc.) or with a control medium followed by further incubation overnight. The cells were rinsed with Hanks' buffer (HBSS) supplemented with 0.05% BSA and 0.2 mM IBMX and then preincubated at 37° C. for 30 minutes in the same buffer. Next, the cells were incubated at 37° C. for 30 minutes after the buffer was exchanged by Hanks' buffer alone (HBSS) supplemented with 0.05% BSA and 0.2 mM IBMX (black column), or by HBSS further added with 1 μM forskolin only (white column), or by HBSS added with 1 μM forskolin and 0.1 μM RFRP-1-12 (peptide having the 81 (Met) to 92 (Phe) amino acid sequence in SEQ ID NO: 1) (hatched column). After completion of the incubation, cAMP in the cells of each well was extracted and quantified according to the method of cAMP EIA Kit (Amersham, Inc.).

[1] = test system: pituitary hormone level in plasma; test: Pituitary hormone level in plasma after administration into the third ventricle; type: in vivo, Wistar rats; details: for plasma prolactin level: vs PBS control
Experimental: The effect of the peptide shown by SEQ ID NO: 39 administered into the third ventricle on pituitary hormone level in plasma, was explored. Mature male Wistar rats (body weights at operation: about 290-350 g) were anesthetized with 50 mg/kg of pentobarbital, i.p., and each rat was immobilized in a rat brain stereotaxic apparatus. The incisor bar was set 3.3 mm lower from the interaural line. The skull was exposed, and using a dental drill a hole was made on the bone for implantation of a guide cannula.
In addition, an anchor screw was buried in one position around the hole. A stainless-steel guide cannula, AG-12 (0.4 mm inner diameter, 0.5 mm outer diameter, EICOM Co., Ltd.), was inserted in such a manner that its tip would be situated in the upper part of the third ventricle. Following the atlas of Paxinos and Watson (1986), the stereotaxic coordinates were set to AP: +7.2 mm (from the interaural line), L: 0.0 mm, and H: +2.0 mm (from the interaural line). The guide cannula was secured to the skull using instant adhesive, dental cement and an anchor screw. A stainless-steel dummy cannula, AD-12 (0.35 mm outer diameter, EICOM Co., Ltd.), was then passed through the guide cannula and locked in position with a cap nut (EICOM Co., Ltd.). After the operation the rats were housed in individual cages and kept for at least a week for postoperative recuperation before starting the experiment.
The operated rat was anesthetized with 50 mg/kg of pentobarbital, i.p., and immobilized in the dorsal position on a necropsy pad. A catheter (SP35, Natsume Seisakusho Co., Ltd.) was inserted into the right jugular vein. On the following day, 400 μl of blood was drawn through the jugular vein catheter. To prevent clotting, a syringe was filled beforehand with 20 μl of saline containing 200 U/ml of heparin. The cap nut and dummy cannula were removed from the rat skull and instead, a stainless steel microinjection cannula AMI13 (0.17 mm inner diameter, 0.35 mm outer diameter, EICOM Co., Ltd.) connected to a Teflon tube (50 cm long, 0.1 mm inner diameter, 0.4 mm outer diameter, EICOM Co., Ltd.) was inserted. The length of the microinjection cannula was adjusted beforehand so that its tip would be exposed from the guide cannula by 1 mm. One end of the Teflon tube was connected to a microsyringe pump and either PBS or the peptide shown by SEQ ID NO: 39 dissolved in PBS was injected, in a total volume of 10 μl, into the third ventricle at a flow rate of 5 μl/min. After a 1 minute standby time following the infusion, the microinjection cannula was disconnected and the dummy cannula was locked in position again with a cap nut. Immediately before the initiation of intraventricular administration and 10, 20, 30, 40, and 60 minutes after the initiation of administration, 400 μl aliquots of blood were collected via the cannula inserted into the jugular vein. Each blood sample collected was centrifuged (5,000 rpm, 10 min.) with a high-speed refrigerated microcentrifuge (MR-150, Tommy Seiko) and the supernatant (plasma) was recovered. The amount of prolactin in the plasma was determined by radioimmunoassay.
The results were shown in terms of a mean±S.E.M. To examine if there was a significant difference between the group administered with the peptide shown by SEQ ID NO: 39 dissolved in PBS and the control group administered with PBS alone, Student's t-test was used. According to the two-tailed test, the risk percentage of 5% or less was assumed to be statistically significant.

[2] = 10 nmols into the third ventricle

T1 sequence (Q9EP86 whole entry): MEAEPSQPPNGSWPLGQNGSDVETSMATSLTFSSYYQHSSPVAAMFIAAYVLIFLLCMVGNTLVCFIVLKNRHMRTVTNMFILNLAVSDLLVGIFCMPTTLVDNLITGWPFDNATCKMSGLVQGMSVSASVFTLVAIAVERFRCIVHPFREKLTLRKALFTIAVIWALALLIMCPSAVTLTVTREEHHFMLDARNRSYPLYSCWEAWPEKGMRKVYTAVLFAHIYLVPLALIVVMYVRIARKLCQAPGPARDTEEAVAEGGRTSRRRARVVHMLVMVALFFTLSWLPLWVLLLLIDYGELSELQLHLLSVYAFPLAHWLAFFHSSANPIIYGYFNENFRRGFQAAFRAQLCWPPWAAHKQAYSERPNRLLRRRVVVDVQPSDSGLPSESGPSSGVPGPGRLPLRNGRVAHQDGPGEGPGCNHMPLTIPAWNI
T2 sequence (Q9GZQ6 whole entry): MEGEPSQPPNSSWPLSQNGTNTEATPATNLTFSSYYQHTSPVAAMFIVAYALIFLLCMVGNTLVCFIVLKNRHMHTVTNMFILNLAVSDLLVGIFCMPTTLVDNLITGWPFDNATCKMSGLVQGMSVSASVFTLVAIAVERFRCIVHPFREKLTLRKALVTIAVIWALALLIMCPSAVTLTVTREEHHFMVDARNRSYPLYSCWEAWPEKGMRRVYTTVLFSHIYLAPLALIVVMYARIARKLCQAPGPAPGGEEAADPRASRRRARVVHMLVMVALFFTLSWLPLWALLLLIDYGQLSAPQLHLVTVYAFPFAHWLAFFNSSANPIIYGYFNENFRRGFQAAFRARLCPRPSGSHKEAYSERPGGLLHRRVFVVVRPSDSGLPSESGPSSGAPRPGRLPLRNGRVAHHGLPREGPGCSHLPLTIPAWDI

Row | Compound | reaction of rOT7T022L-expressing CHO cells (acidification rate) (rOT7T022L) | cAMP production inhibiting activity in cells treated with pertussis toxin (Human 0T7T022 receptor) | level of ACTH in plasma [1, 2] | level of GH in plasma [1, 2] | level of LH in plasma [1, 2] | level of TSH in plasma [1, 2] | plasma prolactin level ([1]; 10 minutes after 10 nmols into the third ventricle) | plasma prolactin level ([1]; 20 minutes after 10 nmols into the third ventricle) | plasma prolactin level ([1]; 30 minutes after 10 nmols into the third ventricle) | plasma prolactin level ([1]; 40 minutes after 10 nmols into the third ventricle) | plasma prolactin level ([1]; 60 minutes after 10 nmols into the third ventricle)
1 | CC(C)C[C@H](NC(=O)[C@H](CC(N)=O)NC(=O)[C@@H]1CCCN1C(=O)[C@@H](N)C(C)C)C(=O)N1CCC[C@H]1C(=O)N[C@@H](CCC(N)=O)C(=O)N[C@@H](CCCNC(=N)N)C(=O)N[C@@H](Cc1ccccc1)C(N)=O | strongly showed dose-dependent reaction | – | – | – | – | – | – | – | – | – | –
2 | H-MPHSFANLPLRF-NH2 | strongly showed dose-dependent reaction | lost | none showed any significant change | none showed any significant change | none showed any significant change | none showed any significant change | tended to increase | significantly increased | significantly increased | significantly increased | a significant difference was noted
